Here are results for four compounds from patent US6448268B1, “Aryl-{4-fluoro-4-[(2-pyridin-2-yl-ethylamino)-methyl]-piperidin-1-yl}-methanone derivatives as 5-ht1 receptor antagonists” (Pierre Fabre Medicament, priority 1998, dated 2002).

As usually defined, the melting point is the temperature of the solid-liquid transition. Broadly, the ED50 is the dose at which the effect has come halfway, by size or by number of responders.

Series [1] has as its target T1, 5-HT1A receptor (Rattus norvegicus, UniProt P19327).
T1 sequence (P19327 1-422): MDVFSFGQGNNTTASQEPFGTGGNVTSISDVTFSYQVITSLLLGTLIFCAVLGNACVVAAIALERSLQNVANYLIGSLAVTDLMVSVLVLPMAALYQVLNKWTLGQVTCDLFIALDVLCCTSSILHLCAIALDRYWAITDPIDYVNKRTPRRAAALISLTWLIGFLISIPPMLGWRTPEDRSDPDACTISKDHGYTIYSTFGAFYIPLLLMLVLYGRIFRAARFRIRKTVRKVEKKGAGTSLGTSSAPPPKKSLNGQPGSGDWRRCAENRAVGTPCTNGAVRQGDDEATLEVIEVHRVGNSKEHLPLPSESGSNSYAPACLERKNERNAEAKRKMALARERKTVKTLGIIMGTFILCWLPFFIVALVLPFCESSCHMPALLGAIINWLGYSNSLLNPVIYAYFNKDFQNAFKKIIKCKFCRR
Put plainly: 5-HT1A receptor agonist activity in vivo: lower lip retraction (LLR) after oral administration. Particulars: rats, observed t55 to t65 min, doses as base weight, read-out: LLR p.o. ED50. Further details: Male Sprague Dawley rats (ICO:OFAD [IOPS], Iffa Credo, France); from tissue; host or cells: whole animal, male Sprague Dawley rats, oral dosing. The text has this: 3—Evaluation of the 5-HT1A Receptor Agonist Activity of the Compounds of the Invention In Vivo.
Male Sprague Dawley rats (ICO:OFAD [IOPS], Iffa Credo, France), weighing 160-180 g on arrival and 180-200 g at the start of the tests, are used. The animals are placed in quarantine for 4 to 8 days with free access to standardized laboratory food, before being used in the experiments. The animals are housed individually in plastic cages on cage holders (28 cm×21 cm×18 cm) with a grille floor (RC Iffa Credo), 24 hours before the tests. By means of an automatic dispenser, water filtered through a 0.22 μm filter is freely available. The quarantine area and the experiment laboratory are air conditioned (temperature: 22±1° C.; relative humidity: 55±5%) and illuminated from 7 a.m. to 7 p.m. All the rats are treated according to the ethics for laboratory animals (Guide for the Care and Use of Laboratory Animals, U.S. Department of Agriculture, Public Health Service, National Institutes of Health publication No. 85-23, Revised 1985) and the protocol (No. 15) is carried out in accordance with the recommendations of the local research animals ethics committee. […]
The behavior of the animal is observed for a period of 10 minutes each, centered at t60 minutes, after oral administration. […] The products are administered in a volume of 10 ml/kg and the doses are expressed as base weight. […]

The target of series [2] is T1, 5-HT1A receptor. Put plainly: Affinity for 5-HT1A receptors by displacement of (3H)8-OH-DPAT. Further details: from tissue; host or cells: rat cerebral cortex membrane homogenate. The class given is binding. The settings on record: for Ki: rat cerebral cortex, (3H)8-OH-DPAT displacement, read-out: pKi 5-HT1A (converted); for Selectivity 5-HT1A/D2: ratio of the affinity constants (Ki) D2/Ki (5-HT1A). The method, then: 1—Measurement of the Affinity of the Compounds of the Invention for the 5-HT1A Receptors
The in vitro affinity of the compounds of the invention for 5-HT1A receptors was determined by measuring the displacement of (^3H)8-OH-DPAT (TRK 850; 160-240 Ci/mmol).
The study of the binding to the 5-HT1A receptor is carried out as described by Sleight and Peroutka (Naunyn-Schmiedeberg's Arch. Pharmaco., 1991, 343, 106). Rat cerebral cortices are used for these experiments. After thawing the brain in 50 mmol Tris-HCl buffer pH=7.40 at 25° C., the cerebral cortex is removed and homogenized in 20 volumes of buffer maintained at 4°C. The homogenate is centrifuged at 39,000×g for 10 minutes and the centrifugation pellet is suspended in the same volume of buffer and centrifuged again. After resuspending under the same conditions, the homogenate is incubated for 10 minutes at 37° C. and then centrifuged again. The final pellet is suspended in cold 50 mmol Tris-HCl reaction buffer, pH=7.40 at 25° C., containing 10 mmol of pargyline, 4 mmol of CaCl2 and 0.10% ascorbic acid. The final concentration of tissue in the incubation medium is 10 mg/tube.
The reaction tubes contain 0.10 ml of (^3H)8-OH-DPAT ([…]), 0.10 ml of test product 6-7 concentrations and 0.80 ml of tissue. The nonspecific binding is defined using 10 mmol of 5-HT. The reaction tubes are incubated at 23° C. for 30 minutes and their contents are then rapidly filtered under vacuum through Whatman GF/B filters and the tubes are rinsed with twice 5 ml of 50 mmol Tris-HCl buffer, pH=7.4 at 25° C. The radioactivity collected on the filter is analyzed by liquid scintillation by adding 4 ml of liquid scintillant (Emulsifier Safe, Packard). All the experiments are carried out in triplicate.
The inhibition constants (Ki) of the products of the invention are estimated from the displacement experiments using the nonlinear regression program RADLIG version 4 from EBDA (Equilibrium Binding Data Analysis) (Biosoft, Cambridge, UK, McPherson, 1985). The dissociation constants of the radioactive ligands used in the calculations are […] for (^3H)8-OH-DPAT and 0.036 mmol for (^3H)YM-09151-2. The pKi (−logKi) values are given in the form of the mean±SEM of at least 3 experiments.

Where a name gives a salt, the structure may show the parent alone.

The compound `O=C(c1ccc(F)c(Cl)c1)N1CCC(F)(CNCCc2ccccn2)CC1` (as salt: oxalate) [Example 1, (3-Chloro-4-fluorophenyl){4-fluoro-4-[(2-pyrid-2-ylethylamino)methyl]-l-piperidyl}methanone] came in with a melting point of 172 to 174 °C.
The same measure, in the same setting: with `O=C(c1ccc(Cl)c(Cl)c1)N1CCC(F)(CNCCc2ccccn2)CC1` (as salt: oxalate) [Example 2, (3,4-Dichlorophenyl){4-fluoro-4-[(2-pyrid-2-ylethylamino)methyl]-1-piperidyl}methanone] the figure was 192 to 194 °C.
Turning to `O=C(c1ccc(Cl)c(Cl)c1)N1CCC(F)(CNCCc2ccccn2)CC1` [Example 2, (3,4-Dichlorophenyl){4-fluoro-4-[(2-pyrid-2-ylethylamino)methyl]-1-piperidyl}methanone], the ED50 on 5-HT1A receptor [1] was 0.31 mg/kg. Also, at 5-HT1A receptor [2], the Ki is 0.38 nM and the “Selectivity 5-HT1A/D2” value is on record as 1 318.
The corresponding values for `O=C(c1ccc(F)c(Cl)c1)N1CCC(F)(CNCCc2ccccn2)CC1` [Example 1, (3-Chloro-4-fluorophenyl){4-fluoro-4-[(2-pyrid-2-ylethylamino)methyl]-l-piperidyl}methanone] are 0.31 mg/kg, 0.155 nM and 4 266.
